{
  "source": "patent US20240300886A1",
  "about": "“ARYLCYCLOHEXYLAMINE DERIVATIVES AND THEIR USE IN THE TREATMENT OF PSYCHIATRIC DISORDERS” (GILGAMESH PHARMACEUTICALS, INC., priority 2021, published 2024)",
  "key": {"[1]": {"assay": "Oral bioavailability in rats, Method A (plasma PK)", "assay_type": "in vivo, Sprague Dawley rats", "settings": "rat plasma", "experimental": "Animals. Male Sprague Dawley rats were used in these studies. Animals were randomly assigned to treatment groups and were fasted for 4 h before dosing.\n(§1) Drugs. Test compounds were dissolved in normal saline and administered intravenously (iv) or orally (po) at a dose of 10 mg/kg (calculated based on freebase) and at a volume of 5 mL/kg body weight. Compounds were tested as the racemates or pure enantiomers, as indicated.\nSample Collection and Bioanalysis. Blood samples were collected under 2,2,2-tribromoethanol anesthesia (150 mg/kg, ip) from the orbital sinus at 0.083, 0.25, 0.5, 1, 2, 4, 8 and 24 h (4 animals per time point) into microcontainers containing K2EDTA. Immediately after collection of blood, rats were euthanized by […]. All samples were immediately processed, flash-frozen, and stored at −70° C. until subsequent analysis. Plasma samples were separated by centrifugation of whole blood and aliquots (50 μL) were mixed with 200 μL of internal standard solution (400 ng/mL in 1:1 v/v CH3CN:MeOH). After mixing by pipetting and centrifuging for 4 min at 6,000 rpm, 0.5 μL of each supernatant was analyzed for drug using a fit-for-purpose liquid chromatography-tandem mass spectrometry (LC-MS/MS) method, with authentic samples of each analyte used for calibration and identification.\n(§2) Data Analysis. The drug concentrations of samples below the lower limit of quantitation (LLOQ) were designated as zero. Pharmacokinetic data analysis was performed using noncompartmental, bolus injection or extravascular input analysis models in WinNonlin 5.2 (PharSight). Data points below LLOQ were presented as missing to improve validity of t1/2 calculations."}, "[2]": {"assay": "Oral bioavailability in mice, Method A (plasma and brain PK)", "assay_type": "in vivo, CD-1 mice", "settings": "for half-life / Cmax / AUC(0-inf): male; for F: 10 mg/kg", "experimental": "Animals. Male CD-1 mice were used in these studies. Animals were randomly assigned to treatment groups and were fasted for 4 h before dosing.\nas §1\nSample Collection and Bioanalysis. Blood samples were collected under 2,2,2-tribromoethanol anesthesia (150 mg/kg, ip) from the orbital sinus at 0.083, 0.25, 0.5, 1, 2, 4, 8 and 24 h (4 animals per time point) into microcontainers containing K2EDTA. Immediately after collection of blood, mice were euthanized by cervical dislocation and brain samples were collected at the same time points. All samples were immediately processed, flash-frozen, and stored at −70° C. until subsequent analysis. Plasma samples were separated by centrifugation of is whole blood and aliquots (50 μL) were mixed with 200 μL of internal standard solution (400 ng/mL in 1:1 v/v CH3CN:MeOH). After mixing by pipetting and centrifuging for 4 min at 6,000 rpm, 0.5 μL of each supernatant was analyzed for drug using a fit-for-purpose liquid chromatography-tandem mass spectrometry (LC-MS/MS) method, with authentic samples of each analyte used for calibration and identification. Brain samples (weight 100 mg±1 mg) were dispersed in 500 μL of internal standard solution (400 ng/mL in 4:1 v/v MeOH:water) using zirconium oxide beads (115 mg±5 mg) in The Bullet Blender® homogenizer for 30 s at speed 8. After homogenization, the samples were centrifuged for 4 min at 14,000 rpm and 0.5 μL of each supernatant was analyzed for drug using a fit-for-purpose LC-MS/MS method, with authentic samples of each analyte used for calibration and identification.\nas §2, with “tin” for “t1/2”"}},
  "data": [
    {"smiles": "CNC1(c2ccccc2Cl)CCCCC1=O", "note": "(racemic) [racemic ketamine, ketamine]", "values": [
      {"measurement": "AUC(0-inf)", "setting": "[1]; male, Sprague Dawley, 10 mg/kg iv, read-out: AUC0-inf (iv) (converted)", "result": 1350, "unit": "ng·h/mL"},
      {"measurement": "half-life", "setting": "[1]; male, Sprague Dawley, 10 mg/kg iv, read-out: t1/2 (iv)", "result": 41.6, "unit": "min"},
      {"measurement": "Cmax", "setting": "[1]; male, Sprague Dawley, 10 mg/kg po", "result": 190, "unit": "ng/mL"},
      {"measurement": "AUC(0-inf)", "setting": "[1]; male, Sprague Dawley, 10 mg/kg po, read-out: AUC0-inf (po) (converted)", "result": 125, "unit": "ng·h/mL"},
      {"measurement": "half-life", "setting": "[1]; male, Sprague Dawley, 10 mg/kg po, read-out: t1/2 (po)", "result": 33.7, "unit": "min"},
      {"measurement": "F", "setting": "[1]; 10 mg/kg", "result": 9.07, "unit": "%"},
      {"measurement": "half-life", "setting": "[2]; CD-1, mouse brain, 10 mg/kg iv, read-out: t1/2 (iv)", "result": 8.66, "unit": "min"},
      {"measurement": "Cmax", "setting": "[2]; CD-1, mouse brain, 10 mg/kg po", "result": 521, "unit": "ng/g"},
      {"measurement": "half-life", "setting": "[2]; CD-1, mouse brain, 10 mg/kg po, read-out: t1/2 (po)", "result": 12.2, "unit": "min"},
      {"measurement": "AUC(0-inf)", "setting": "[2]; CD-1, mouse plasma, 10 mg/kg iv, read-out: AUC0-inf (iv) (converted)", "result": 633, "unit": "ng·h/mL"},
      {"measurement": "half-life", "setting": "[2]; CD-1, mouse plasma, 10 mg/kg iv, read-out: t1/2 (iv)", "result": 8.46, "unit": "min"},
      {"measurement": "Cmax", "setting": "[2]; CD-1, mouse plasma, 10 mg/kg po", "result": 253, "unit": "ng/mL"},
      {"measurement": "AUC(0-inf)", "setting": "[2]; CD-1, mouse plasma, 10 mg/kg po, read-out: AUC0-inf (po) (converted)", "result": 96.8, "unit": "ng·h/mL"},
      {"measurement": "half-life", "setting": "[2]; CD-1, mouse plasma, 10 mg/kg po, read-out: t1/2 (po)", "result": 11.5, "unit": "min"},
      {"measurement": "AUC0-inf (iv)", "setting": "[2]; mouse brain, 10 mg/kg iv", "result": "97,000 ng*min/g"},
      {"measurement": "AUC0-inf (po)", "setting": "[2]; mouse brain, 10 mg/kg po", "result": "6,030 ng*min/g"},
      {"measurement": "F", "setting": "[2]; mouse brain, calculated based on brain exposure", "result": 6.2, "unit": "%"},
      {"measurement": "F", "setting": "[2]; mouse plasma", "result": 15, "unit": "%"}
    ]}
  ]
}
